Laboratory results published in ChEMBL document CHEMBL6092168, “Identification of novel indolinone derivatives as CTSC inhibitors to treat inflammatory bowel disease by modulating inflammatory factors” (Eur J Med Chem, 2024).
Active and inactive are the calls of the source. The calls are words filed in the database; no cut-off is given here.

Legend:
[1] = biological target: T1, Cathepsin G (Mus musculus) (UniProt P28293); assay: Induction of Cathepsin G degradation in C57BL/6 mouse bone marrow cells assessed as residual activity at 10 uM incubated for 48 hrs by Western blot analysis relative to control; type: cell-based; details: Bone marrow cell
T1 sequence (whole entry): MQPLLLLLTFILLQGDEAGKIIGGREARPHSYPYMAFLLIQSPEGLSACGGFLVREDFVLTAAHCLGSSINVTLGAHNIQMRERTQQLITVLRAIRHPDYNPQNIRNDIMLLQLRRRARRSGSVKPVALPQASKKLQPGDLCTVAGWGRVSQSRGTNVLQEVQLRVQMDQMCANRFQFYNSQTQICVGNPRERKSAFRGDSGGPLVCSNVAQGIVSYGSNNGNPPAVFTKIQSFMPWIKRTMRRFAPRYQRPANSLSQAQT

Mus musculus [2] = assay: Anti-inflammatory activity in DSS-induced ulcerative colitis male C57BL/6 mouse model assessed as reduction in TNF-alpha expression in serum administered via gavage for 10 days by ELISA; type: functional, organism-based; details: dose 15-60 mg/kg, time 10.0 day
[3] = biological target: T2, Neutrophil elastase (Mus musculus) (UniProt Q3UP87); assay: In vivo inhibition of neutrophil elastase in C57BL/6 mouse assessed as reduction in neutrophil elastase activity in blood at 30 mg/kg, po administered once daily for 6 days by fluorescence based microplate reader relative to control; type: functional, organism-based; details: time 6.0 day
T2 sequence (whole entry): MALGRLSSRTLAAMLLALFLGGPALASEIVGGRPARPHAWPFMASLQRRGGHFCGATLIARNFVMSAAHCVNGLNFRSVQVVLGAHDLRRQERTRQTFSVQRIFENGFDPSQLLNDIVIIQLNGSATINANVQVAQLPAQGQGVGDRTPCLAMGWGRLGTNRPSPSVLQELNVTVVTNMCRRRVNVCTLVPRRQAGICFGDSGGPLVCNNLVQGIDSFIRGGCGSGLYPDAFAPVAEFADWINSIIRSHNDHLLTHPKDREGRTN

[4] = Acute toxicity in ICR mouse assessed as change in white blood cell count in blood at 1500 mg/kg, po administered daily for 7 days; type: organism-based; details: in vivo, 168 h, time 7 day
Dipeptidyl peptidase 1 [5] = biological target: T3, Dipeptidyl peptidase 1 (Homo sapiens, UniProt P53634); assay: Inhibition of human recombinant Cathepsin C using Gly-Phe-AFC as substrate preincubated for 3 hrs followed by substrate addition and measured after 1 hr by fluorescence based multifunctional microplate reader analysis
T3 sequence (P53634 25-134 limits assumed): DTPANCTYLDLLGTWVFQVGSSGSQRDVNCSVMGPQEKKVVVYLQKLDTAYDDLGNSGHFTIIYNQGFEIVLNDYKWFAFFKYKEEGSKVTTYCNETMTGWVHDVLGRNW
T3 sequence (P53634 231-394 limits assumed): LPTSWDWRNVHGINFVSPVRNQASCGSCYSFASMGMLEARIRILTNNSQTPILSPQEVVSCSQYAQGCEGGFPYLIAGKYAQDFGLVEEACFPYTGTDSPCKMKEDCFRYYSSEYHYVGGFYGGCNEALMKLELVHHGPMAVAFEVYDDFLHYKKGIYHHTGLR
T3 sequence (P53634 395-463 limits assumed): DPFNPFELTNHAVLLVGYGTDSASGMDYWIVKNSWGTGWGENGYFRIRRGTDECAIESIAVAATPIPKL

Mus musculus [6] = assay: Anti-inflammatory activity in DSS-induced ulcerative colitis male C57BL/6 mouse model assessed as reduction in Cathepsin C level in serum at 60 mg/kg administered via gavage for 10 days relative to control; type: functional; design: scale not given: the % may be the effect or the level left; details: time 10 day
Mus musculus [7] = assay: Anti-inflammatory activity in DSS-induced ulcerative colitis male C57BL/6 mouse model assessed as increase in colon length at 60 mg/kg administered via gavage for 10 days; type: functional, organism-based; details: time 10.0 day
Mus musculus [8] = assay: Anti-inflammatory activity in DSS-induced ulcerative colitis male C57BL/6 mouse model assessed as reduction in proteinase 3 level in serum at 15 to 30 mg/kg administered via gavage for 10 days; type: functional, organism-based; details: dose 15-30 mg/kg, time 10.0 day
[9] = biological target: T4, Myeloblastin (Mus musculus) (UniProt Q61096); assay: In vivo inhibition of proteinase 3 in C57BL/6 mouse assessed as reduction in proteinase 3 activity in bone marrow at 30 mg/kg, po administered once daily for 6 days by fluorescence based microplate reader relative to control; type: functional, organism-based; details: time 6.0 day
T4 sequence (whole entry): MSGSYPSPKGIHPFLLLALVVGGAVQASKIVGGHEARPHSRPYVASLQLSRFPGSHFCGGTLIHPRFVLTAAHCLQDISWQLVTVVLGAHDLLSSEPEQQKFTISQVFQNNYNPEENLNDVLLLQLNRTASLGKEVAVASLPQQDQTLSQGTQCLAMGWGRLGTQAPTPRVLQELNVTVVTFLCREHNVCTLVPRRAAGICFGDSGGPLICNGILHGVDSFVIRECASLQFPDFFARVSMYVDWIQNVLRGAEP

Dipeptidyl peptidase 1 [10] = biological target: T3, Dipeptidyl peptidase 1; assay: Induction of thermal stabilization of Cathepsin C in human U-937 cell incubated for 1 hrs at 37 to 65 degreeC by CETSA based Western blot analysis; details: dose 10-20 µM
Mus musculus [11] = assay: Anti-inflammatory activity in DSS-induced ulcerative colitis male C57BL/6 mouse model assessed as reduction in cathepsin G level in colon at 15 to 30 mg/kg administered via gavage for 10 days; type: functional, organism-based; details: dose 15-30 mg/kg, time 10.0 day
Mus musculus [12] = assay: Anti-inflammatory activity in DSS-induced ulcerative colitis male C57BL/6 mouse model assessed as reduction in inflammatory cell infiltration in colon at 60 mg/kg administered via gavage for 10 days by H and E staining based analysis; type: functional, organism-based; details: time 10.0 day
Mus musculus [13] = assay: Anti-inflammatory activity in DSS-induced ulcerative colitis male C57BL/6 mouse model assessed as reduction in Cathepsin C level in colon at 60 mg/kg administered via gavage for 10 days; type: functional; design: scale not given: the % may be the effect or the level left; details: time 10 day
[14] = biological target: T5, Dipeptidyl peptidase 1 (Mus musculus) (UniProt P97821); assay: In vivo inhibition of Cathepsin C in C57BL/6 mouse assessed as reduction in cathepsin C activity in blood at 30 mg/kg, po administered once daily for 6 days by fluorescence based microplate reader relative to control; type: functional, organism-based; details: time 6.0 day
T5 sequence (whole entry): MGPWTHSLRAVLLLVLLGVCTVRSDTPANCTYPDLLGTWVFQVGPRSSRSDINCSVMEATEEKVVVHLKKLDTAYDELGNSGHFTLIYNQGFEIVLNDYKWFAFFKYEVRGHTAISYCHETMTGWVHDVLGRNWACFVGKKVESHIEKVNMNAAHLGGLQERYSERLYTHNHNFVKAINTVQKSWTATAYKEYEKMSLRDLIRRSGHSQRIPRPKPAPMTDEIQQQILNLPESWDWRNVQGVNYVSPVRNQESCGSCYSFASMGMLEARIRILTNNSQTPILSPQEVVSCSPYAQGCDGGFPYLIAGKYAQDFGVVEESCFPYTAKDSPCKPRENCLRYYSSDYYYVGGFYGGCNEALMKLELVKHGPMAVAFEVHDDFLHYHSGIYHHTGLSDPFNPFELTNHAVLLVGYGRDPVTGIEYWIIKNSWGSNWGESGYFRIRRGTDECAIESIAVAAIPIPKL

[15] = AUC (0 to infinity) in male Sprague-Dawley rat at 10 mg/kg, po measured at 5 to 1440 mins by LC-MS/MS analysis; type: ADME, organism-based; details: in vivo, time 5-1440 min
Mus musculus [16] = assay: Anti-inflammatory activity in DSS-induced ulcerative colitis male C57BL/6 mouse model assessed as reduction in cathepsin G level in serum at 15 to 30 mg/kg administered via gavage for 10 days; type: functional, organism-based; details: dose 15-30 mg/kg, time 10.0 day
Mus musculus [17] = assay: Anti-inflammatory activity in DSS-induced ulcerative colitis male C57BL/6 mouse model assessed as reduction in IL- 6 expression in serum administered via gavage for 10 days by ELISA; type: functional, organism-based; details: dose 15-60 mg/kg, time 10.0 day
Mus musculus [18] = assay: Anti-inflammatory activity in DSS-induced ulcerative colitis male C57BL/6 mouse model assessed as reduction in GM-CSF expression in serum administered via gavage for 10 days by ELISA; type: functional, organism-based; details: dose 15-60 mg/kg, time 10.0 day
[19] = Acute toxicity in ICR mouse assessed as change in white blood cell count in bone marrow at 1500 mg/kg, po administered daily for 7 days; type: organism-based; details: in vivo, 168 h, time 7 day

O=C1Nc2c(cccc2-c2ccc(NC3CCOCC3)cc2)/C1=C/c1ccnc2ccccc12
Activity [1]: 17.3%
Activity (Mus musculus [2]): Dose-dependent-effect; Significant Reduction Observed In High Dose Group
inhibition [3]: 42.9%
Activity [4]: Non-toxic
IC50 (Dipeptidyl peptidase 1 [5]): 84.3 nM
Activity (Mus musculus [6]): 37%
Activity (Mus musculus [7]): Active; Significantly More Effective Than In Mesalazine Treatment Group
Activity (Mus musculus [8]): inactive
inhibition [9]: 58.6%
Activity (Dipeptidyl peptidase 1 [10]): Dose-dependent-effect; Significant Thermal Stability Observed
Activity (Mus musculus [11]): inactive
Activity (Mus musculus [12]): Active
Activity (Mus musculus [13]): 45%
inhibition [14]: 27.2%
AUC [15]: 407.54 ng·h/mL
Activity (Mus musculus [16]): inactive
Activity (Mus musculus [17]): Dose-dependent-effect; Significant Reduction Observed In High Dose Group
Activity (Mus musculus [18]): Dose-dependent-effect; Significant Reduction Observed In High Dose Group
Activity [19]: Non-toxic
